The text below walks through data of patent publication US20190175534A1, “PHARMACEUTICAL COMPOSITIONS COMPRISING DGLA AND USE OF SAME” (DS Biopharma Limited, priority 2016, published 2019).

Each structure is given as a SMILES string.

The test system of data set [1] is spontaneous hypertensive rats. Description: Arterial pressure in spontaneous hypertensive rats after seven days of gavage, with intravenous phenylephrine challenge. Format: in vivo, rat.
Procedure: An in vivo investigation of anti-hypertension efficacy following co-administration of DGLA and aspirin in spontaneous hypertensive rats was conducted. This experiment investigated the efficacy of DGLA when co-administered chronically with aspirin to reduce the hypertensive response induced acutely by phenylephrine in spontaneous hypertensive rats. Spontaneously hypertensive adult male rats (250-300 g), bred by Charles River Laboratories, were used for this assay. […] The animals were pair-housed by group (low dose+aspirin, high dose+aspirin or aspirin alone) for the duration of the oral gavage prior to surgery.
The test article was formulated using olive oil as the vehicle. This stock solution was then administered by oral gavage once per day for seven consecutive days. A low and a high dose (50 mg/kg and 500 mg/kg) were tested.
A 5 mg/ml stock solution of aspirin was prepared by dissolving the appropriate amount of aspirin in 100% DMSO which was then diluted in water. The concentration of DMSO was less than 1%. The appropriate volume was administered by oral gavage to each animal once per day for seven consecutive days. The stock solution was stored at room temperature and was considered stable for the duration of the gavage.
The appropriate volume was administered to each animal by an intravenous injection at the end of the experiment on the surgery day. The stock solution was stored at 4° C. and was considered stable for the duration of the experiment.
Male spontaneous hypertensive rats weighing approximately 300 g arrived at the facility at least two days before beginning the oral gavage. Animals were assigned to one of three groups (low dose+aspirin, high dose+aspirin, and aspirin), and were pair-housed during the acclimation period. […]
Rats were anesthetized with a 2.5-3.0% isoflurane-O2 mixture in an induction box. […] Blood pressure, systemic arterial pressure (SAP), and heart rate were monitored continuously for a total of half an hour. Hypertension was detected as an increase in diastolic, systolic or mean blood pressure. […]
Details of data set [2]: species or system human. To be noted: in vivo, po. Here is the method:
A single-center, double-blind, randomized, placebo-controlled, two part Phase one study was performed in healthy male and female subjects aged 18 to 45 years inclusive. The primary objective of this study was to assess the safety and plasma pharmacokinetics (PK) of orally administered single doses and orally administered multiple doses of DS107G capsules (once daily for 28 days) in healthy subjects.
Subjects were randomly assigned in a 3:1 ratio of DG107G to placebo by block randomization. Single dose part one of the study comprised three cohorts of eight subjects each, with the addition of Cohort four based on evaluation of the safety data of Cohort three by the Safety Monitoring Committee (SMC). A single oral dose of DS107G or matching placebo was administered to fasted subjects in Cohorts one to three (500, 1000, and 2000 mg, respectively) in parallel; subjects in Cohort four were administered a dose of 4000 mg following completion of Cohort three. Subjects in Cohort two received 1000 mg or matching placebo in the fed state at ≥14 days after the first dose.
Safety assessments were monitored throughout the study.
In Part one of the study, subjects in Cohorts one to three were administered a single dose of study drug (either 500-, 1000-, or 2000-mg as 500-mg DS107G capsules or matching placebo capsules) in parallel on study Day 1 after at least an 8-hour fast, according to Table 20. Cohort 4 was initiated following the review of safety data from Cohort 3 by the SMC.

On to `CC(=O)Oc1ccccc1C(=O)O` [Aspirin, aspirin], for which, in data set [1] (Aspirin gavage 7 days, phenylephrine 20 μg/kg iv), the “Mean arterial pressure, Average SAP” value was 174.3. For `COc1ccccc1OCCNCC(O)COc1cccc2[nH]c3ccccc3c12` (stereo not drawn) [Carvedilol, carvedilol], the “Effect on mean systemic arterial pressure when added after phenylephrine” value in data set [1] (0.1 mg/kg i.v., aspirin-fed rats) was “significant decrease”.

In the case of `CCCCC[C@H](O)/C=C/C=C\C/C=C\CCCCCCC(=O)O` [Batch 15-HETrE, 15-Hydroxyeicosatrienoic acid], in data set [2], the “Free 15-HETrE plasma concentration” value is listed as less than 100 ng/mL.
